Tests used:
Assay type in all cases: in vivo
rice (Oryza sativa) = experiment: Test B flooded paddy test, rice; settings: Flood, 250 g ai/ha, applied to paddy water, 2-leaf stage, visual evaluation after 13 to 15 d
Method in brief: (§1)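 Plants grown to 2-leaf stage. Compounds applied directly into paddy water flooded 3 cm above soil, with that depth kept throughout. After 13–15 d in greenhouse, visual rating versus controls on a 0–100 scale (0 no effect, 100 complete control).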

[1] = tested on: foxtail, giant (Setaria faberii); experiment: Test A preemergence, giant foxtail; settings: 0 to 100 scale; for Plant response rating, Foxtail, Giant: 500 g ai/ha
Method in brief: (§2)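 Post: seedlings 2–10 cm, 1–2 leaves, foliar spray. Pre: soil spray after sowing in loam/sand blend. Both formulated in non-phytotoxic solvent with surfactant; injury scored visually 0–100 after ~10 d.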

[2] = tested on: pigweed (Amaranthus retroflexus); experiment: Test A postemergence, pigweed; settings: 0 to 100 scale
Method in brief: as §2

[3] = tested on: barnyardgrass (Echinochloa crus-galli); experiment: Test A postemergence, barnyardgrass; settings: 0 to 100 scale
Method in brief: as §2

[4] = tested on: ragweed (common ragweed, Ambrosia elatior); experiment: Test A postemergence, ragweed; settings: 0 to 100 scale
Method in brief: as §2

corn (Zea mays) = experiment: Test A postemergence, corn; settings: 0 to 100 scale
Method in brief: as §2

[5] = tested on: barnyardgrass (Echinochloa crus-galli); experiment: Test B flooded paddy test, barnyardgrass; settings: Flood, 250 g ai/ha, applied to paddy water, 2-leaf stage, visual evaluation after 13 to 15 d
Method in brief: as §1

[6] = tested on: pigweed (Amaranthus retroflexus); experiment: Test A preemergence, pigweed; settings: 0 to 100 scale; for Pigweed plant response rating: 125 g ai/ha, 0 is no effect, 100 is complete control; for Plant response rating, Pigweed: 500 g ai/ha
Method in brief: as §2

[7] = tested on: sedge, umbrella (small-flower umbrella sedge, Cyperus difformis); experiment: Test B flooded paddy test, umbrella sedge; settings: Flood, 250 g ai/ha, applied to paddy water, 2-leaf stage, visual evaluation after 13 to 15 d
Method in brief: as §1

[8] = tested on: ducksalad (Heteranthera limosa); experiment: Test B flooded paddy test, ducksalad; settings: Flood, 250 g ai/ha, applied to paddy water, 2-leaf stage, visual evaluation after 13 to 15 d
Method in brief: as §1

[9] = tested on: ragweed (common ragweed, Ambrosia elatior); experiment: Test A preemergence, ragweed; settings: 0 to 100 scale; for Ragweed plant response rating: 125 g ai/ha, 0 is no effect, 100 is complete control; for Plant response rating, Ragweed: 500 g ai/ha
Method in brief: as §2

[10] = tested on: ryegrass, Italian (Lolium multiflorum); experiment: Test A preemergence, Italian ryegrass; settings: 0 to 100 scale; for Ryegrass, Italian plant response rating: 125 g ai/ha, 0 is no effect, 100 is complete control; for Plant response rating, Ryegrass, Italian: 500 g ai/ha
Method in brief: as §2

kochia (Kochia scoparia) [11] = experiment: Test A preemergence, kochia; settings: 0 to 100 scale; for Kochia plant response rating: 125 g ai/ha, 0 is no effect, 100 is complete control; for Plant response rating, Kochia: 500 g ai/ha
Method in brief: as §2

[12] = tested on: ryegrass, Italian (Lolium multiflorum); experiment: Test A postemergence, Italian ryegrass; settings: 0 to 100 scale
Method in brief: as §2

kochia (Kochia scoparia) [13] = experiment: Test A postemergence, kochia; settings: 0 to 100 scale
Method in brief: as §2

[14] = tested on: blackgrass (Alopecurus myosuroides); experiment: Test A postemergence, blackgrass; settings: 0 to 100 scale
Method in brief: as §2

[15] = tested on: galium (catchweed bedstraw, Galium aparine); experiment: Test A postemergence, galium; settings: 0 to 100 scale
Method in brief: as §2

[16] = tested on: wheat (Triticum aestivum); experiment: Test A postemergence, wheat; settings: 0 to 100 scale
Method in brief: as §2

[17] = tested on: foxtail, giant (Setaria faberii); experiment: Test A postemergence, giant foxtail; settings: 0 to 100 scale
Method in brief: as §2

[18] = tested on: barnyardgrass (Echinochloa crus-galli); experiment: Test A preemergence, barnyardgrass; settings: 0 to 100 scale; for Barnyardgrass plant response rating: 125 g ai/ha, 0 is no effect, 100 is complete control; for Plant response rating, Barnyardgrass: 500 g ai/ha
Method in brief: as §2

Compound | Plant response rating, Rice (0 to 100 scale, 0 is no effect, 100 is complete control) (rice (Oryza sativa)) | Plant response rating, Foxtail, Giant [1] | Plant response rating, Pigweed ([2]; 125 g ai/ha) | Plant response rating, Pigweed ([2]; 500 g ai/ha) | Plant response rating, Barnyardgrass ([3]; 125 g ai/ha) | Plant response rating, Barnyardgrass ([3]; 500 g ai/ha) | Plant response rating, Ragweed ([4]; 125 g ai/ha) | Plant response rating, Ragweed ([4]; 500 g ai/ha) | Plant response rating, Corn (corn (Zea mays); 125 g ai/ha) | Plant response rating, Corn (corn (Zea mays); 500 g ai/ha) | Plant response rating, Barnyardgrass (0 to 100 scale, 0 is no effect, 100 is complete control) [5] | Pigweed plant response rating [6] | Plant response rating, Pigweed [6] | Plant response rating, Sedge, Umbrella (0 to 100 scale, 0 is no effect, 100 is complete control) [7] | Plant response rating, Ducksalad (0 to 100 scale, 0 is no effect, 100 is complete control) [8] | Ragweed plant response rating [9] | Plant response rating, Ragweed [9] | Ryegrass, Italian plant response rating [10] | Plant response rating, Ryegrass, Italian [10] | Kochia plant response rating (kochia (Kochia scoparia) [11]) | other results
Cc1cc(F)cc(OCC(C)Nc2ncc(C(F)(F)F)c(N)n2)c1 (centres unmarked) [Compound 39] | 0 | 90 | 20 | 60 | 0 | 0 | 0 | 40 | 10 | 20 | 0 | 70 | 80 | 0 | 0 | 70 | 100 | 0 | 10 | 0 | Plant response rating, Kochia (kochia (Kochia scoparia) [11]): 80; Plant response rating, Ryegrass, Italian ([12]; 125 g ai/ha): 0; Plant response rating, Ryegrass, Italian ([12]; 500 g ai/ha): 50; Plant response rating, Kochia (kochia (Kochia scoparia) [13]; 125 g ai/ha): 40; Plant response rating, Kochia (kochia (Kochia scoparia) [13]; 500 g ai/ha): 70; Plant response rating, Blackgrass ([14]; 125 g ai/ha): 0; Plant response rating, Blackgrass ([14]; 500 g ai/ha): 0; Plant response rating, Galium ([15]; 125 g ai/ha): 70; Plant response rating, Galium ([15]; 500 g ai/ha): 70; Plant response rating, Wheat ([16]; 125 g ai/ha): 0; Plant response rating, Wheat ([16]; 500 g ai/ha): 0; Plant response rating, Foxtail, Giant ([17]; 125 g ai/ha): 0; Plant response rating, Foxtail, Giant ([17]; 500 g ai/ha): 10; Barnyardgrass plant response rating [18]: 40; Plant response rating, Barnyardgrass [18]: 90
CC(Nc1ncc(C(F)(F)F)c(N)n1)c1csc2ccccc12 (centres unmarked) [Compound 40] | 0 | 90 | 80 | 100 | 0 | 60 | 30 | 60 | 0 | 10 | 20 | 100 | 100 | 40 | 20 | 90 | 100 | 20 | 100 | 60 | Foxtail, Giant plant response rating ([1]; 125 g ai/ha, 0 is no effect, 100 is complete control): 10; Plant response rating, Kochia (kochia (Kochia scoparia) [11]): 60; Plant response rating, Ryegrass, Italian ([12]; 125 g ai/ha): 30; Plant response rating, Ryegrass, Italian ([12]; 500 g ai/ha): 0; Plant response rating, Kochia (kochia (Kochia scoparia) [13]; 125 g ai/ha): 50; Plant response rating, Kochia (kochia (Kochia scoparia) [13]; 500 g ai/ha): 90; Plant response rating, Blackgrass ([14]; 125 g ai/ha): 0; Plant response rating, Blackgrass ([14]; 500 g ai/ha): 10; Plant response rating, Galium ([15]; 125 g ai/ha): 60; Plant response rating, Galium ([15]; 500 g ai/ha): 90; Plant response rating, Wheat ([16]; 125 g ai/ha): 0; Plant response rating, Wheat ([16]; 500 g ai/ha): 0; Plant response rating, Foxtail, Giant ([17]; 125 g ai/ha): 0; Plant response rating, Foxtail, Giant ([17]; 500 g ai/ha): 20; Barnyardgrass plant response rating [18]: 30; Plant response rating, Barnyardgrass [18]: 80
